# Patent US8980906B2, “Pyridonemorphinan analogs and biological activity on opioid receptors” (Purdue Pharma L.P., priority 2012, dated 2015)
# Read-outs that look alike come from different tables or passages of the source.
# Assays:
# μ-opioid receptor [1] = molecular target: T1, μ-opioid receptor (Homo sapiens (Human), UniProt P35372); experiment: μ-opioid receptor radioligand dose-displacement binding assay ([3H]-diprenorphine); settings: binding affinity
# Procedure: μ-Opioid Receptor Binding Assay Procedures: Radioligand dose-displacement binding assays for μ-opioid receptors used 0.3 nM [^3H]-diprenorphine (Perkin Elmer, Shelton, Conn.), with […] membrane protein/well in a final volume of 500 μl binding buffer (10 mM MgCl2, 1 mM EDTA, 5% DMSO, 50 mM HEPES, pH 7.4). Reactions were carried out in the absence or presence of increasing concentrations of unlabeled naloxone. All reactions were conducted in 96-deep well polypropylene plates for 2 hours at room temperature. Binding reactions were terminated by rapid filtration onto 96-well Unifilter GF/C filter plates (Perkin Elmer, Shelton, Conn.), presoaked in 0.5% polyethylenimine using a 96-well tissue harvester (Perkin Elmer, Shelton, Conn.) followed by performing three filtration washes with 500 μl of ice-cold binding buffer. Filter plates were subsequently dried at 50° C. for 2-3 hours. BetaScint scintillation cocktail (Perkin Elmer, Shelton, Conn.) was added (50 μl/well), and plates were counted using a Packard Top-Count for 1 min/well. The data were analyzed using the one-site competition curve fitting functions in GraphPad PRISM™ v. 3.0 or higher (San Diego, Calif.), or an in-house function for one-site competition curve-fitting.
# κ-opioid receptor [2] = molecular target: T2, κ-opioid receptor (Homo sapiens (Human), UniProt P41145); experiment: κ-opioid receptor radioligand dose-displacement binding assay ([3H]-U69,593); settings: binding affinity, [3H]-U69,593 displacement
# Procedure: κ-Opioid Receptor Binding Assay Procedures: Membranes from HEK-293 cells, CHO or U-2 OS cells expressing the recombinant human kappa opioid receptor (κ) were prepared by lysing cells in ice cold hypotonic buffer (2.5 mM MgCl2, 50 mM HEPES, pH 7.4) (10 mL/10 cm dish) followed by homogenization with a tissue grinder/Teflon pestle. Membranes were collected by centrifugation at 30,000×g for 15 min at 4° C. and pellets were resuspended in hypotonic buffer to a final concentration of 1-3 mg/mL. Protein concentrations were determined using the BioRad protein assay reagent with bovine serum albumen as standard, Aliquots of κ receptor membranes were stored at […].
# Radioligand dose displacement assays used 0.4 nM [^3H]-U69,593 (GE Healthcare, Piscataway, N.J.; 40 Ci/mmole) with 15 μg membrane protein (recombinant κ opioid receptor expressed in HEK 293 cells; in-house prep) in a final volume of 200 μl binding buffer (5% DMSO, 50 mM Trizma base, pH 7.4). Non-specific binding was determined in the presence of 10 μM unlabeled naloxone or U69,593. All reactions were performed in 96-well polypropylene plates for 1 hour at a temperature of about 25° C. Binding reactions were terminated by rapid filtration onto 96-well Unifilter GF/C filter plates (Perkin Elmer, Shelton, Conn.) presoaked in 0.5% polyethylenimine (Sigma). Harvesting was performed using a 96-well tissue harvester (Perkin Elmer, Shelton, Conn.) followed by five filtration washes with 200 μl ice-cold binding buffer. Filter plates were subsequently dried at 50° C. for 1-2 hours. Fifty μl/well scintillation cocktail (Perkin Elmer, Shelton, Conn.) was added and plates were counted in a Packard Top-Count for 1 min/well.
# κ-opioid receptor [3] = molecular target: T2, κ-opioid receptor; experiment: κ-opioid receptor [35S]GTPγS functional assay, HEK-293 or CHO cells; type: biochemical
# Procedure: κ-Opioid Receptor Functional Assay Procedures: Functional [^35S]GTPγS binding assays were conducted as follows. κ opioid receptor membrane solution was prepared by sequentially adding final concentrations of 0.026 μg/μl κ membrane protein (in-house), 10 μg/mL saponin, 3 μM GDP and 0.20 nM [^35S]GTPγS to binding buffer (100 mM NaCl, 10 mM MgCl2, 20 mM HEPES, pH 7.4) on ice. The prepared membrane solution (190 μl/well) was transferred to 96-shallow well polypropylene plates containing 10 μl of 20× concentrated stock solutions of agonist prepared in DMSO. Plates were incubated for 30 min at a temperature of about 25° C. with shaking. Reactions were terminated by rapid filtration onto 96-well Unifilter GF/B filter plates (Perkin Elmer, Shelton, Conn.) using a 96-well tissue harvester (Packard) and followed by three filtration washes with 200 μl ice-cold binding buffer (10 mM NaH2PO4, 10 mM Na2HPO4, pH 7.4). Filter plates were subsequently dried at 50° C. for 2-3 hours. Fifty μl/well scintillation cocktail (Perkin Elmer, Shelton, Conn.) was added and plates were counted in a Packard Top-Count for 1 min/well.
# κ-Opioid Receptor Functional Data: κ GTP EC50 is the concentration of a compound providing 50% of the maximal response for the compound at a κ receptor.
# κ GTP Emax (%) is the maximal effect elicited by a compound relative to the effect elicited by U69,593.
# (§1) In TABLE 2, activity response of certain Compounds of the Invention to the μ-, δ- and κ-opioid receptors was determined as described above for functional assays using HEK-293 or CHO cells.
# μ-opioid receptor [4] = molecular target: T1, μ-opioid receptor; experiment: μ-opioid receptor [35S]GTPγS functional assay, HEK-293 or CHO cells; type: biochemical
# Procedure: μ-Opioid Receptor Functional Assay Procedures: [^35S]GTPγS functional assays were conducted using freshly thawed μ-receptor membranes prepared in-house from a cell line expressing recombinant μ opioid receptor in a HEK-293, CHO or U-2 OS cell background, or purchased from a commercial source (Perkin Elmer, Shelton, Conn.; or DiscovRx, Fremont, Calif.). Assay reactions were prepared by sequentially adding the following reagents to binding buffer (100 mM NaCl, 10 mM MgCl2, 20 mM HEPES, pH 7.4) on ice (final concentrations indicated): membrane protein (0.026 mg/mL), saponin ([…]), GDP ([…]) and [^35S]GTPγS (0.20 nM; Perkin Elmer, Shelton, Conn.). The prepared membrane solution (190 μl/well) was transferred to 96-shallow well polypropylene plates containing 10 μl of 20× concentrated stock solutions of the agonist [D-Ala^2, N-methyl-Phe^4 Gly-ol^5]-enkephalin (DAMGO) prepared in dimethyl sulfoxide (DMSO). Plates were incubated for 30 min at about 25° C. with shaking. Reactions were terminated by rapid filtration onto 96-well Unifilter GF/B filter plates (Perkin Elmer, Shelton, Conn.) using a 96-well tissue harvester (Perkin Elmer, Shelton, Conn.) followed by three filtration washes with 200 μl of ice-cold wash buffer (10 mM NaH2PO4, 10 mM Na2HPO4, pH 7.4). Filter plates were subsequently dried at 50° C. for 2-3 hours. BetaScint scintillation cocktail (Perkin Elmer, Shelton, Conn.) was added (50 μl/well) and plates were counted using a Packard Top-Count for 1 min/well. Data were analyzed using the sigmoidal dose-response curve fitting functions in GraphPad PRISM v. 3.0, or an in-house function for non-linear, sigmoidal dose-response curve-fitting.
# μ-Opioid Receptor Functional Data: μ GTP EC50 is the concentration of a compound providing 50% of the maximal response for the compound at a μ-opioid receptor.
# μ GTP Emax (%) is the maximal effect elicited by a compound relative to the effect elicited by DAMGO, a standard μ agonist. Generally, the μ GTP Emax (%) value measures the efficacy of a compound to treat or prevent pain or other Conditions.
# as §1
# [5] = relative to U69,593, HEK-293 or CHO cells
# [6] = relative to DAMGO, HEK-293 or CHO cells
Compound,Ki (κ-opioid receptor [2]) [nM],EC50 (κ-opioid receptor [3]) [nM],EC50 (μ-opioid receptor [4]) [nM],other results
"COc1ccc2c(c1)[C@]13CCN(C)[C@H](C2)[C@]1(O)Cc1cc(C(N)=O)c(=O)[nH]c1C3 [Compound 28, (6R,6aS,12aR)-15-(methyl)-6a-hydroxy-2-methoxy-10-oxo-6,6a,7,10,11,12-hexahydro-5H-6,12a-(epiminoethano)naphtho[2,1-g]quinoline-9-carboxamide]",12300,–,–,"Ki (μ-opioid receptor [1]; [3H]-diprenorphine displacement, read-out: Ki (nM) Opioid Receptor μ): 14400 ± 4140 nM"
"COc1ccc2c(c1)[C@]13CCN(CC4CC4)[C@H](C2)[C@@H]1Cc1cc(C(N)=O)c(=O)[nH]c1C3 [Compound 6, (6R,6aR,12aS)-15-(cyclopropylmethyl)-2-methoxy-10-oxo-6,6a,7,10,11,12-hexahydro-5H-6,12a-(epiminoethano)naphtho[2,1-g]quinoline-9-carboxamide]",35.7 ± 2.74,2980 ± 587,528 ± 121,Emax (κ-opioid receptor [3]; [5]): 59.3 ± 2.33%; Emax (μ-opioid receptor [4]; [6]): 19.7 ± 2.02%
"COC(=O)c1cc2c([nH]c1=O)C[C@]13CCN(C)[C@H](Cc4ccc(OC)cc41)[C@]3(O)C2 [Compound 27, (6R,6aS,12aR)-methyl 15-(methyl)-6a-hydroxy-2-methoxy-10-oxo-6,6a,7,10,11,12-hexahydro-5H-6,12a-(epiminoethano)naphtho[2,1-g]quinoline-9-carboxylate]",3080 ± 128,–,–,"Ki (μ-opioid receptor [1]; bound given in μM, read-out: Ki Opioid Receptor μ): > 20000 nM"
C[C@H](NC(=O)c1cc2c([nH]c1=O)C[C@]13CCN(CC4CC4)[C@H](Cc4ccc(O)cc41)[C@]3(O)C2)C(N)=O [Compound 16],1.05 ± 0.22,> 20000,6.44 ± 0.41,Emax (μ-opioid receptor [4]; [6]): 14.7 ± 3.28%
"COc1ccc2c(c1)[C@]13CCN(CC4CC4)[C@H](C2)[C@]1(O)Cc1cc(C(N)=O)c(=O)[nH]c1C3 [Compound 4, (6R,6aS,12aR)-15-(cyclopropylmethyl)-6a-hydroxy-2-methoxy-10-oxo-6,6a,7,10,11,12-hexahydro-5H-6,12a-(epiminoethano)naphtho[2,1-g]quinoline-9-carboxamide]",292 ± 17,5380 ± 489,> 20000,Emax (κ-opioid receptor [3]; [5]): 39.7 ± 5.78%
"NC(=O)[C@@H]1CCCN1C(=O)c1cc2c([nH]c1=O)C[C@]13CCN(CC4CC4)[C@H](Cc4ccc(O)cc41)[C@]3(O)C2 [Compound 19, (S)-1-((6R,6aS,12aR)-15-(cyclopropylmethyl)-2,6a-dihydroxy-10-oxo-6,6a,7,10,11,12-hexahydro-5H-6,12a-(epiminoethano)naphtho[2,1-g]quinoline-9-carbonyl)pyrrolidine-2-carboxamide]",0.97 ± 0.23,> 20000,> 20000,–
"COC(=O)c1cc2c([nH]c1=O)C[C@]13CCN(CC4CC4)[C@H](Cc4ccc(OC)cc41)[C@]3(O)C2 [Compound 2, (6R,6a,S,12aR)-methyl 15-(cyclopropylmethyl)-6a-hydroxy-2-dimethoxy-10-oxo-6,6a,7,10,11,12-hexahydro-5H-6,12a-(epiminoethano)naphtho[2,1-g]quinoline-9-carboxylate]",37.6 ± 4.75,594 ± 87,> 20000,Emax (κ-opioid receptor [3]; [5]): 37.5 ± 2.25%
"NC(=O)[C@H](Cc1ccccc1)NC(=O)c1cc2c([nH]c1=O)C[C@]13CCN(CC4CC4)[C@H](Cc4ccc(O)cc41)[C@]3(O)C2 [Compound 17, (6R,6aS,12aR)—N—((S)-1-amino-1-oxo-3-phenylpropan-2-yl)-15-(cyclopropylmethyl)-2,6a-dihydroxy-10-oxo-6,6a,7,10,11,12-hexahydro-5H-6,12a-(epiminoethano)naphtho[2,1-g]quinoline-9-carboxamide]",0.85 ± 0.15,> 20000,> 20000,Emax (μ-opioid receptor [4]; [6]): -0.33 ± 0.67%
"NC(=O)C[C@H](NC(=O)c1cc2c([nH]c1=O)C[C@]13CCN(CC4CC4)[C@H](Cc4ccc(O)cc41)[C@]3(O)C2)C(N)=O [Compound 20, (S)-2-((6R,6aS,12aR)-15-(cyclopropylmethyl)-2,6a-dihydroxy-10-oxo-6,6a,7,10,11,12-hexahydro-5H-6,12a-(epiminoethano)naphtho[2,1-g]quinoline-9-carboxamido)succinamide]",2.59 ± 0.99,> 20000,> 20000,–
"NC(=O)CNC(=O)c1cc2c([nH]c1=O)C[C@]13CCN(CC4CC4)[C@H](Cc4ccc(O)cc41)[C@]3(O)C2 [Compound 14, (6R,6aS,12aR)—N-(2-amino-2-oxoethyl)-15-(cyclopropylmethyl)-2,6a-dihydroxy-10-oxo-6,6a,7,10,11,12-hexahydro-5H-6,12a-(epiminoethano)naphtho[2,1-g]quinoline-9-carboxamide]",1.53 ± 0.26,> 20000,> 20000,–
"COc1ccc2c(c1)[C@]13CCN(CC4CC4)[C@H](C2)[C@@H]1Cc1cc(C(=O)O)c(=O)[nH]c1C3 [Compound 10, (6R,6aR,12aS)-15-(cyclopropylmethyl)-2-methoxy-10-oxo-6,6a,7,10,11,12-hexahydro-5H-6,12a-(epiminoethano)naphtho[2,1-g]quinoline-9-carboxylic acid]",183 ± 23.3,–,–,"EC50 (κ-opioid receptor [3]; GTPγS, HEK-293 or CHO cells, read-out: κ EC50): 3490 ± 636 nM; κ Emax (%) (κ-opioid receptor [3]; [5]): 37.75 ± 1.70%; EC50 (μ-opioid receptor [4]; GTPγS, HEK-293 or CHO cells, read-out: μ EC50): 225 ± 89.6 nM; μ Emax (%) (μ-opioid receptor [4]; [6]): 25.67 ± 0.88%"
